Read-outs that look alike come from different tables or passages of the source.
What was measured:
[1] = tested on: acrylamide neuropathy of axons; conditions: in vivo; cited from earlier work
[2] = tested on: bacterial and yeast systems; conditions: cited from earlier work
[3] = tested on: gastric mucosa; conditions: rats; caused by acetylsalicylic acid; cited from earlier work
[4] = tested on: gastric mucosa; conditions: guinea pigs; caused by acetylsalicylic acid; cited from earlier work
[5] = tested on: cyanide intoxication; conditions: in vivo; cited from earlier work
[6] = tested on: L1210 leukemia; conditions: advanced L1210 leukemia; cited from earlier work
[7] = tested on: emphysema and restrictive airway disease; assay: Inhalation of nebulized sodium pyruvate solution by a patient; lung capacity and lung function tests; format: in vivo, human
Description: Subject: A person suffering from emphysema and restrictive airway disease was treated as described below for three (3) months.
Treatment: The treatment was conducted as follows: Five (5) milliliters of five (5) millimolar sodium pyruvate solution is filter sterilized through a 0.2 micron filter. The sterile pyruvate solution is placed into a “Pulmo Aid” nebulizer manufactured by DeVilbiss Co., Somerset, Pa. 15501-0635. The sterile pyruvate solution is nebulized by the Pulmo Aid device fitted with a disposable nebulizer and inhaled by the patient. The patient inhales normally from the Pulmo Aid nebulizer until all of the solution has been nebulized and inhaled. This inhalation step typically takes about ten (10) to twenty (20) minutes.
The patient is treated with this inhalation therapy periodically. Initially, treatments are about four (4) times a day at about six (6) hour intervals. Treatments were reduced to three (3) times a day at about eight (8) hour intervals after 30 days of therapy. Treatments were further reduced to once a day 60 DAYS AFTER ONSET OF TREATMENT. After ninety (90) days treatments are three to five times a week.

[8] = tested on: sodium sulfide; conditions: in vivo; cited from earlier work
[9] = tested on: urinary calculi (stones); conditions: rats fed calcium-oxalate lithogenic diet, versus control rats; cited from earlier work
[10] = twenty to thirty minutes after initial treatment

SMILES: CC(=O)C(=O)[O-].[Na+] [sodium pyruvate]
- onset and development of functional, morphological, and biochemical measures of acrylamide neuropathy [1]: retard
- growth [2]: enhance
- hydrogen peroxide production [2]: inhibit
- toxicity of reactive oxygen intermediates [2]: protect
- number of erosions, ulcers, and hemorrhages on the gastric mucosa [3]: reduce
- number of erosions, ulcers, and hemorrhages on the gastric mucosa [4]: reduce
- effect on cyanide intoxication [5]: antagonist
- abnormally deformed red blood cells [6]: restore abnormally deformed red blood cells to normal
- MVV (maximum ventilatory volume) ([7]; After Two Months Treatment, Before: 19): 25
- DCO (diffusion of carbon monoxide) ([7]; After Two Months Treatment, Before: 27): 39 MI/min/mm Hg
- DSB (diffusion single breath) ([7]; After Two Months Treatment, Before: 42): 52
- ERV (expiratory reserve volume) ([7]; After Two Months Treatment, Before: 62): 110
- IC (inspiratory capacity) ([7]; After Two Months Treatment, Before: 64): 69
- O SAT (oxygen saturation) ([7]; After Two Months Treatment, Before: 91): 95
- SVC (slow vital capacity) ([7]; After Two Months Treatment, inhaled 5 ml of 5 millimolar solution, Before: 63): 83
- overall condition of the subject ([7]; after three (3) months treatment): marked improvement
- Improved lung function ([7]; conclusion of the treatment): 20%
- Increased exercise tolerance, tested and certified ([7]; conclusion of the treatment): close to that of a person without emphysema and restrictive airway disease
- Mental attitude ([7]; conclusion of the treatment): greatly improved
- Reactive airway disease ([7]; conclusion of the treatment): reduced to the point that routine use of inhalers is not needed
- recurrence of decreased pulmonary functions ([7]; conclusion of the treatment): No recurrence
- exercise tolerance [7, 10]: increase
- tidal volume [7, 10]: increases
- wheezing [7, 10]: stops
- Use of oxygen ([7]; when treatment started): eliminated immediately
- overall results ([7]; within two (2) weeks): dramatic results
- effect on lethal effects of sodium sulfide [8]: protect
- urinary calculi (stones) [9]: fewer

From patent publication US6482856B1, “Method and composition for treating mammalian disease caused by inflammatory response” (Cellular Sciences, Inc., priority 1995, dated 2002)
